Results on 15 compounds are retold here after patent publication US9890142B2, “PDE4 inhibitor” (Meiji Seika Pharma Co., Ltd., priority 2013, dated 2018).

The test system of the test is PDE4. Nature of the test: Evaluation of PDE4 inhibition (scintillation proximity assay). The test is classed as biochemical. As to conditions: inhibition rate relative to control, test compound at 1 μM. An outline of the steps: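 PDE4 was incubated 120 min at room temperature with [3H]-cAMP and compound in 50 mM Tris-HCl pH 7.5, 8.3 mM MgCl2, 1.7 mM EDTA, 0.3 mg/mL BSA. Product captured on ZnSO4-containing YSi-SPA beads and counted; inhibition calculated against DMSO control after no-enzyme blank subtraction.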
A general note: In a scintillation proximity assay essentially only radioactivity close to the scintillant gives light.
Turning to `C[C@H]1CNCCN1c1nc2c(I)c(Cl)cc(-c3ccccn3)c2o1` [Example 146, (S)-5-Chloro-4-iodo-2-(2-methylpiperazin-1-yl)-7-(pyridin-2-yl)benzoxazole], the “PDE4 inhibitory activity (1 μM (%))” value is listed as 95%.
In the case of `C[C@H]1CNCCN1c1nc2cc(Cl)c(I)c(-c3ccccn3)c2o1` [Example 147, (S)-5-Chloro-6-iodo-2-(2-methylpiperazin-1-yl)-7-(pyridin-2-yl)benz oxazole] it was 53%; in that of `C[C@H]1CNCCN1c1nc2c(-c3ccccc3)c(Cl)cc(-c3ccccn3)c2o1` [Example 148, (S)-5-Chloro-2-(2-methylpiperazin-1-yl)-4-phenyl-7-(pyridin-2-yl)benzoxazole], 94%; in that of `C[C@H]1CNCCN1c1nc2c(C3CC3)c(Cl)cc(-c3ccccn3)c2o1` [Example 149, (S)-5-Chloro-4-cyclopropyl-2-(2-methylpiperazin-1-yl)-7-(pyridin-2-yl)benzoxazole], 91%.
Consider `CSc1c(Cl)cc(-c2ccccn2)c2oc(N3CCNC[C@@H]3C)nc12` [Example 150, (S)-5-Chloro-2-(2-methylpiperazin-1-yl)-4-(methylthio)-7-(pyridin-2-yl)benzoxazole], for which the “PDE4 inhibitory activity (1 μM (%))” value amounted to 91%.
Regarding `C[C@H]1CNCCN1c1nc2c(S(C)(=O)=O)c(Cl)cc(-c3ccccn3)c2o1` [Example 151, (S)-5-Chloro-2-(2-methylpiperazin-1-yl)-4-(methylsulfonyl)-7-(pyridin-2-yl)benzoxazole], the “PDE4 inhibitory activity (1 μM (%))” value stood at 76%.
Turning to `C[C@H]1CNCCN1c1nc2cc(Cl)c(Br)c(-c3ccccn3)c2o1` [Example 152, (S)-6-Bromo-5-chloro-2-(2-methylpiperazin-1-yl)-7-(pyridin-2-yl)benzoxazole], the “PDE4 inhibitory activity (1 μM (%))” value came out at 68%.
To `COc1c(Cl)cc(-c2ccccn2)c2oc(N3CCNC[C@@H]3C)nc12` [Example 153, (S)-5-Chloro-4-methoxy-2-(2-methylpiperazin-1-yl)-7-(pyridin-2-yl)benzoxazole] belongs 93%.
To `Cc1cc(Cl)cc2nc(N3CCNC[C@@H]3C)oc12` [Example 154, (S)-5-Chloro-7-methyl-2-(2-methylpiperazin-1-yl)benzoxazole] belongs 39%.
In the case of `COc1c(Cl)cc(-c2nccs2)c2oc(N3CCNC[C@@H]3C)nc12` [Example 155, (S)-5-Chloro-4-methoxy-2-(2-methylpiperazin-1-yl)-7-(thiazol-2-yl)benzoxazole] it was 96%.
As for `COc1c(Cl)cc(-n2cccn2)c2oc(N3CCNC[C@@H]3C)nc12` [Example 156, (S)-5-Chloro-4-methoxy-2-(2-methylpiperazin-1-yl)-7-(1H-pyrazol-1-yl)benzoxazole], the “PDE4 inhibitory activity (1 μM (%))” value came out at 91%.
For the compound `C[C@@H]1CNCCN1c1nc2c(OC(F)(F)F)c(Cl)cc(-c3ccccn3)c2o1` [Example 157, (R)-5-Chloro-2-(2-methylpiperazin-1-yl)-7-(pyridin-2-yl)-4-(trifluoromethoxy)benzoxazole], the “PDE4 inhibitory activity (1 μM (%))” value is listed as 41%.
Take `C[C@@H]1CNCCN1c1nc2c(OC(F)(F)F)c(Cl)cc(-c3nccs3)c2o1` [Example 158, (R)-5-Chloro-2-(2-methylpiperazin-1-yl)-7-(thiazol-2-yl)-4-(trifluoromethoxy)benzoxazole]: the “PDE4 inhibitory activity (1 μM (%))” value is 88%.
In the case of `C[C@@H]1CNCCN1c1nc2c(OC(F)(F)F)c(Cl)cc(-n3cccn3)c2o1` [Example 159, (R)-5-Chloro-2-(2-methylpiperazin-1-yl)-7-(1H-pyrazol-1-yl)-4-(trifluoromethoxy)benzoxazole] it was 57%; in that of `C[C@H]1CNCCN1c1nc2cc(Cl)c(OC(F)(F)F)c(-c3nccs3)c2o1` [Example 160, (S)-5-Chloro-2-(2-methylpiperazin-1-yl)-7-(thiazol-2-yl)-6-(trifluoromethoxy)benzoxazole], 86%.
